Measured values reported in patent US9303019B2, “Amino-pyrroline derivatives, and use thereof in the prevention and/or treatment of metabolic syndrome” (UNIVERSITE DE STRASBOURG, priority 2012, dated 2016).

Tests used:
I1 receptor = I1 receptor (Rattus norvegicus, UniProt Q4G017); assay: Competitive binding to [125I]-PIC in membranes of PC12 cells; conditions: PC12 cell membranes
Protocol: The PC-12 cells were cultured in 75-cm^2 dishes in DMEM medium (1000 mg/l glucose) supplemented with 10% FBS inactivated by treatment at 56° C., 100 U/ml penicillin and 100 μg/ml streptomycin. When the cells reached confluence (3 to 4 days after the start of culture) they were harvested and passaged via the action of 0.25% trypsin for 2 minutes at 37° C. For the specific binding assays, the medium was removed and the cells stored by freezing to −20° C. until use with the membrane preparation.
The frozen PC12 cells were recovered by scraping in ice-cold Tris-HEPES buffer (5 mM Tris-HEPES, pH 7.7, 0.5 mM EDTA, 0.5 mM EGTA and 0.5 mM MgCl2) and Potter homogenized. After centrifuging at 75,000 g for 20 min, the residue was washed in ice-cold Tris-HEPES buffer then again centrifuged. This last operation was performed twice. […]
The reaction was halted by rapid vacuum filtration through GF/B fibre glass filters treated with 0.3% PEI using filtering equipment of Brandel® type, followed by three rapid washings of the filters using 3 ml of ice-cold 50 mM Tris-HCl buffer, pH 7.4. The radioactivity retained on the dried filters was determined using a Minaxi gamma counter (Packard, Meriden, CT, USA). Non-specific binding was determined by [^125I]PIC binding in the presence of 10 μM PIC and represented about 43% of total radioactivity.

SHHF rats [1] = assay: Chronic treatment: plasma biochemical parameters in SHHF rats; assay type: in vivo, rat; conditions: 20 mg/kg/d, 12 weeks
Protocol: (§1) Male SHHF rats (spontaneously hypertensive, heart failure) aged 12 weeks were used for this study (Charles River breeding centre, L'Arbresle, France).
(§2) Compound 1 was administered in the drinking water for 12 weeks at a dose of 20 mg/kg/d (n=17). Water consumption was regularly measured to adjust the concentration of compound 1. Non-treated control SHHF rats had access to normal water (n=10).
Body weight, water and food intake were measured every day. After a treatment time of 12 weeks, blood samples were taken. Three days later, arterial pressure and heart rate were recorded and a glucose tolerance test was performed.
After a treatment time of 12 weeks, blood samples were obtained from the caudal vein of anesthetized rats (2.5% isoflurane, Abbott, Rungis, France) after a fasting time of 18 h.
The blood were centrifuged for 15 minutes at 2000 g and the plasma was frozen to −80° C. until assays of glucose, total cholesterol, HDL and LDL cholesterol and fatty acids. These assays were performed at the following centre: Plateau Technique Biologique des Hôpitaux Universitaires de Strasbourg (Advia 2400, Bayer HealthCare).
Insulin, leptin, adiponectin and glucagon were assayed using ELISA kits (insulin: Mercodia, Uppsala, Sweden; leptin: Yanaihara Institute Inc., Shizuoka, Japan; adiponectin: B-Bridge International, Mountain View, USA; glucagon: Gentaur, Kampenhout, Belgium) following the supplier's recommendations.

SHHF rats [2] = assay: Chronic treatment: glucose tolerance test (IVGTT) in SHHF rats; assay type: in vivo, rat; conditions: 20 mg/kg/d, 12 weeks; glucose 0.5 g/kg i.v.; control 710±37
Protocol: At the end of treatment, the SHHF rats were anesthetized with sodium pentobarbital (50 mg/kg i.p.) after a fasting time of 18 h. The left femoral vein was catheterized to take blood samples for the different dosages. To perform the glucose tolerance test a solution of glucose (0.5 g/kg, i.v.) was administered and the plasma concentrations of glucose were determined after 3, 6, 10, 15, 30 and 45 minutes.
as §1, §2
A glucose solution of 0.5 g/kg was administered via intravenous route. The plasma concentration of glucose was evaluated using a glucometer before injection into animals that had fasted 18 h, and then 3, 6, 10, 15, 30 and 45 min after administration of the glucose (Accu Check Go, Roche Diagnostics, Meylan, France). Area under curve values (AUC) were then determined to compare the groups.

[3] = tested on: different receptors, transporters and enzymes; assay: Specific binding assay on different receptors, transporters and enzymes; conditions: assayed at 10^−7 M and 10^−5 M
Protocol: Compound 1 was assayed at two concentrations 10^−7 (1.0E-07) M and […] (1.0E-05) on different receptors, transporters and enzymes using the techniques described in the literature and adapted for the laboratory.

SHHF rats [4] = assay: Chronic treatment: arterial pressure and heart rate in SHHF rats; assay type: in vivo, rat; conditions: 20 mg/kg/d in drinking water, 12 weeks
Protocol: as §1
The animals were placed in a room with controlled temperature and light, had free access to tap water and were fed a standard diet (A04, SAFE, Augy, France). This study was conducted in agreement with institutional recommendations and the rules laid down by the European Community for the use of experimental animals (L358-86/609/EEC).
as §2
Body weight, water and food intake were measured every day. […] Three days later, arterial pressure and heart rate were recorded and a glucose tolerance test was performed.
The rats were anesthetized with pentobarbital 50 mg/kg, i.p. (Céa santé animale, Libourne, France) and tracheotomized. […] Arterial pressure was recorded after stabilization with a pressure transducer (Gould P23XL) and recorder (Gould Electronics BS 272, Longjumeau, France). Mean arterial pressure (MAP) was calculated as diastolic pressure plus one third of differential arterial pressure. Heart rate was also recorded from the pressure signal using a Gould Biotach amplifier (model 13-4615-66).

Chain of I1 receptor (Q4G017 whole entry, looked up): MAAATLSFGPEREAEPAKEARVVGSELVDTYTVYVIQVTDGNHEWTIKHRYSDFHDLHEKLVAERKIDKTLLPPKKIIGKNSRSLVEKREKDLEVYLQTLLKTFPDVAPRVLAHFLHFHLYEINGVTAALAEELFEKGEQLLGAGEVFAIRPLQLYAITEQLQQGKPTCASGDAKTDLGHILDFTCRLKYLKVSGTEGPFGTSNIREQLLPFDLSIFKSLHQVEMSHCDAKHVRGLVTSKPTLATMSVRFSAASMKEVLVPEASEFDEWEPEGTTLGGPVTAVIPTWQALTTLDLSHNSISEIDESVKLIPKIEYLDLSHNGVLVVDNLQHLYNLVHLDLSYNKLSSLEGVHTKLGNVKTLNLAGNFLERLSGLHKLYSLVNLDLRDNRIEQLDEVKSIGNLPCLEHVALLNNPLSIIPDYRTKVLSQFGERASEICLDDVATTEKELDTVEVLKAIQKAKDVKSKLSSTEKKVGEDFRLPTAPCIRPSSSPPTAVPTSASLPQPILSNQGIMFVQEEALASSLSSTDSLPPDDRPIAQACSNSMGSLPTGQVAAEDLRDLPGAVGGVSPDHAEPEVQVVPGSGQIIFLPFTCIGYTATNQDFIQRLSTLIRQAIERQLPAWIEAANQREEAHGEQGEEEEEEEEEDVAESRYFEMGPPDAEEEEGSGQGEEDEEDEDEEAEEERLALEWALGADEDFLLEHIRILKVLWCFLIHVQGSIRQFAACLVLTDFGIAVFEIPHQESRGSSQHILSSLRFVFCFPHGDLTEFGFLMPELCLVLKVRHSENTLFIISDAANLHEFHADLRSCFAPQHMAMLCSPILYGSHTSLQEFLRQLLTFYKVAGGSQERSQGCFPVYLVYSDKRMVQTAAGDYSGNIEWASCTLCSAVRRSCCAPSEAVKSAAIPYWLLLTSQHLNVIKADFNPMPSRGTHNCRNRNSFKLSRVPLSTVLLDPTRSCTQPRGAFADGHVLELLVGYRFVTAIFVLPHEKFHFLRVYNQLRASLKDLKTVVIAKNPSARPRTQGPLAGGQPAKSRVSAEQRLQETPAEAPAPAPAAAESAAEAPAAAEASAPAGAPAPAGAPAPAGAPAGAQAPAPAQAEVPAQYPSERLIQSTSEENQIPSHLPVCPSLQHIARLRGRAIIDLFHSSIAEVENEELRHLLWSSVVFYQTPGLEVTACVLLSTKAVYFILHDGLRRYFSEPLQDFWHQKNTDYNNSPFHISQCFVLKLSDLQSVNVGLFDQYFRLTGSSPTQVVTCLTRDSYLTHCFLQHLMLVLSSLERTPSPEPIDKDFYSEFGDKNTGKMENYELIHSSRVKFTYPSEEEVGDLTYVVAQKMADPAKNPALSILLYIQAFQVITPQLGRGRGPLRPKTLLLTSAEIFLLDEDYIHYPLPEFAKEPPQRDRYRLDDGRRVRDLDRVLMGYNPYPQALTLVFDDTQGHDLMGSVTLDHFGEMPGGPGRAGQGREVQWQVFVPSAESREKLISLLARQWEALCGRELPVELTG

## Cc1c(Cl)cccc1NC1=NCC(C)C1.Cl (stereo not shown) [Compound 1, (3-Chloro-2-methyl-phenyl)-(4-methyl-4,5-dihydro-3H-pyrrol-2-yl)-amine hydrochloride]
I1 receptor
  share of sites with high affinity: 55%
SHHF rats [1]
  fasting glycaemia: not affected
  free fatty acids: not affected
SHHF rats [1]; fasting 18 h, control 3.8±0.18
  total plasma cholesterol: 2.7 ± 0.09 mmol/L
SHHF rats [1]; fasting 18 h, control 4.59±0.23
  plasma triglycerides: 3.8 ± 0.25 mmol/L
SHHF rats [1]; control 5.54±0.14
  plasma adiponectin: 10.6 ± 0.52 µg/mL
SHHF rats [1]; control 46.8±3.7
  fasting plasma insulin: 15.2 ± 2 ng/mL
SHHF rats [1]; control 534±38
  HOMA-IR index: 110±14
SHHF rats [2]
  AUC after the glucose tolerance test: 556 ± 20 mmol·min/L
[3]; hydrochloride
  affinity for more than 50 receptors, transporters and enzymes: does not exhibit any affinity similar to the affinity for the imidazoline receptor I1
[3]; listed as compound 1, hydrochloride
  affinity for more than 50 receptors, transporters and enzymes: does not bind to any of the assayed receptors, transporters and enzymes with affinity similar
SHHF rats [4]; control 176±6
  arterial pressure: 153±7 mmHg
SHHF rats [4]; control 361±8
  heart rate: 367±6 bpm
